# Experimental data as given in patent publication US20250222050A1, “Chlorella and Corn Leaf Extract Compositions, Their Production, and Methods of Use” (Unigen, Inc., priority 2024, published 2025).
# Columns and labels:
# Assay type in all cases: in vivo
# BALB/C mice [1] = assay: 60-minute direct effect (direct sleep) test, no pentobarbital
# Description: Purpose bred BALB/C mice (n=405; male, 20 g-22 g) were purchased from Beijing Hua Fukang biological technologies Inc (Beijing, China). The study was carried out at Testing Center for the functions of Health Foods, College of Arts and science of Beijing Union University (Beijing, China). Mice were kept in specific pathogen free, temperature-controlled room and fed with rodent diet purchased from Beijing Hua Fukang biological technologies Inc (Beijing, China). Three consecutive studies were carried out. Mice were randomly assigned into 9 groups for each experiment. Fifteen mice were allocated in each group. The first experiment was set to determine the sleep incidence effect of test materials. The second experiment was designed to detect the total sleep time under the hypnotic subthreshold dose of pentobarbital sodium (Lot #: 34E10320, Beijing Dingguo Changsheng Biotechnology Co. Ltd). The third experiment was set to detect sleep latency induced by barbital sodium (Lot #: 527B051, Merck).
# Zea mays (corn) leaf extract standardized at not less than 0.2% 6-MBOA (Lot #: FP210105-01) and Chlorella Powder (Lot #: 222A) were suspended with sterile water. Melatonin purchased from By-Health Co. Ltd. (Beijing, China) was used as a reference compound in each study. All mice were orally administrated with test materials in a volume of 20 mL/kg BW/day. Study lasted for 31 days. […]
# BALB/C mice [2] = assay: Sleep latency induced by barbital sodium
# Description: Purpose bred BALB/C mice (n=405; male, 20 g-22 g) were purchased from Beijing Hua Fukang biological technologies Inc (Beijing, China). The study was carried out at Testing Center for the functions of Health Foods, College of Arts and science of Beijing Union University (Beijing, China). Mice were kept in specific pathogen free, temperature-controlled room and fed with rodent diet purchased from Beijing Hua Fukang biological technologies Inc (Beijing, China). Three consecutive studies were carried out. Mice were randomly assigned into 9 groups for each experiment. Fifteen mice were allocated in each group. […] The third experiment was set to detect sleep latency induced by barbital sodium (Lot #: 527B051, Merck).
# Mice were intraperitoneally injected with 240 mg/kg barbital sodium (0.2 mL/20 g body weight), 15 min after the last test material administration. Sleep latency was recorded and the difference in sleep time between the tested substance groups and vehicle control were determined. […]
# BALB/C mice [3] = assay: Sleep incidence under hypnotic subthreshold dose of pentobarbital; details: mice n=15, oral 1 mg/kg; 32 mg/kg pentobarbital i.p. 15 min after last dose
# Description: The numbers of mice that lost turnover to the right side over 1 min following injection of pentobarbital were recorded. The incidence of sleeping mice was analyzed to compare the difference between the tested substance groups and vehicle control. All the experiments were conducted at night.
# BALB/C mice [4] = assay: Sleep time (duration) after pentobarbital sodium; details: oral 1 mg/kg, 46 mg/kg pentobarbital sodium i.p. 15 min after last dose
# Description: Purpose bred BALB/C mice (n=405; male, 20 g-22 g) were purchased from Beijing Hua Fukang biological technologies Inc (Beijing, China). […] Mice were kept in specific pathogen free, temperature-controlled room and fed with rodent diet purchased from Beijing Hua Fukang biological technologies Inc (Beijing, China). Three consecutive studies were carried out. Mice were randomly assigned into 9 groups for each experiment. Fifteen mice were allocated in each group.
# The amount of time spent sleeping was determined by injecting mice with 46 mg/kg pentobarbital sodium, intraperitoneally, 15 minutes after administration of the last dose of the test materials. The sleep time of each mouse was recorded and the difference of sleep time between tested materials and vehicle control were analyzed.
structure (smiles),measurement,setting,value
COc1ccc2[nH]cc(CCNC(C)=O)c2c1 [Melatonin],Numbers of sleeping,"BALB/C mice [1]; mice n=15, oral 1 mg/kg, 1 h after administration",0
same,Sleep Time,"BALB/C mice [1]; mice, oral 1 mg/kg",0 min
same,sleep latency versus vehicle control (in words),"BALB/C mice [2]; melatonin 1 mg/kg, chlorella 5,000 mg/kg, combination 250 + 5,000 mg/kg",significantly shortened
same,Latent Time (sleep onset latency),"BALB/C mice [2]; mice, oral 1 mg/kg, 240 mg/kg barbital sodium i.p. 15 min after last dose",37.8 ± 12.8 min
same,Incidence (sleep incidence),BALB/C mice [3],60%
same,Sleep Time (sleep duration),BALB/C mice [4],59.7 ± 13.0 min
